Here are results for four compounds from patent US20240390503A1, “Green Tea-based Nanocomplexes for Eye Disease” (Agency for Science, Technology and Research, priority 2021, published 2024).

The subject of data set [1] is Human umbilical vein endothelial cells (HUVECs). Nature of the data set: Inhibitory effects on VEGF-activated endothelial cell proliferation (AlamarBlue). The data set is classed as cell-based. The settings on record: HUVEC, 3 days, read-out: IC50, anti-proliferative effect. Here is the method: Human umbilical vein endothelial cells (HUVECs) were obtained from Lonza Biologics Tuas Pte Ltd (Singapore), and cultured in the endothelial cell basal medium (EBM-2) supplemented with EGM-2 SingleQuots (Lonza Biologics Tuas Pte Ltd, Singapore). HUVECs were seeded in 96-well plates (5×10^3 cells/well, n=5) and cultured for one day for cell attachment.
After 3 days, the cell viability was measured by using AlamarBlue® reagent (Life Technologies, USA) according to the manufacturer's protocol. Briefly, the medium was replaced by phenol red-free media containing 10% AlamarBlue® reagent. After incubation for 4 hours at 37° C., fluorescence intensity (λex=549 nm and λem=587 nm) was measured by a microplate reader (Tecan Group Ltd., Switzerland). Results were expressed as a percentage of viable cells relative to untreated cells.
The CI values of HA-EGCG and drug combination were calculated with the following equation using the CompuSyn software: […]

A further data set relates to Vldlr^−/− mice. Nature of the data set: In vivo anti-angiogenesis effect on Vldlr−/− mice (relative number of retinal lesions, fluorescein angiography).
Data set [2] concerns AMD patients. To be noted: oral, cited from earlier work.
Data set [3] concerns AMD patients. The settings on record: cited from earlier work.

pIC50: −log10 of the molar value. “Also recorded” adds a separate entry of the source. Read-outs that look alike come from different tables or passages of the source. Where only a bound is given, the exact number is not on record here.

As for `CCN(CC)CCNC(=O)c1c(C)[nH]c(/C=C2\C(=O)Nc3ccc(F)cc32)c1C` [SU, Sunitinib malate], the negative logarithm of the IC50 (pIC50) – broadly, the IC50 on a negative log10 scale, so that one unit is a factor of ten – in data set [1] (Homo sapiens, 72 h, VEGF-activated conditions) is 5.36; in data set [1] (Homo sapiens, 72 h, normal growth conditions) it was 5.18. In addition, the “progression of retinal lesions” value with Vldlr^−/− mice (topical, SU 0.50 mg/mL, 10 μL, 3×/day, 28 days) is listed as “no efficacy”.
In the case of `Cc1[nH]c(/C=C2\C(=O)Nc3ccc(F)cc32)c(C)c1C(=O)N[C@H]1CCN(C(=O)N(C)C)C1` [Vorolanib], in the data set on AMD patients [2] (phase 1, completed 24 weeks treatment), the “AMD patients with improved visual acuity” value is reported as 24 out of 25. The “participants who discontinued due to severe systemic adverse effects” value in the data set with AMD patients [2] (phase 1) is recorded as 17%. For the same compound, the “visual acuity compared to placebo” value with AMD patients [2] (phase 2, at 52 weeks) is recorded as “did not improve visual acuity”.
As to Aflibercept, in data set [1] (VEGF-activated conditions), the pIC50 is less than 6.68. The CNV inhibitory effect result in the data set with Vldlr^−/− mice (IVT, 2.0 μg/0.5 μL, 1× at day 0) is “observed only in the early stages of treatment and diminished over time; also recorded: effective only in the first 7 days”. Also, the retinal lesion development result in the data set on Vldlr^−/− mice (topical, AF 0.2 mg/mL or equivalent HA-EGCG/chitosan, 10 μL, 3×/day, 31 days) is given as “failed to suppress the lesion progression”.
In the case of Ranibizumab, in the data set on AMD patients [3] (monthly IVT injection, 0.5 mg), the “AMD patients with improved visual acuity” value was 33.8%. For the same compound, in the data set on AMD patients [3] (two year treatment), the “incidence of increased intraocular pressure” value was 24% and the “incidence of intraocular inflammation” value is given as 18%.
